Experimental data taken from patent US20240238263A1, “USE OF PYRIDONE DERIVATIVE CONTAINING HETEROATOM CYCLOBUTANE SUBSTITUENT” (GUANGZHOU JOYO PHARMATECH CO., LTD, priority 2021, published 2024).

Tested on: dorsal skin full-thickness excisional wound in STZ-induced diabetic rats
Assay: Dorsal skin full-thickness excisional wound model in STZ-induced diabetic rats, wound closure
Assay type: in vivo, Wistar rats
Procedure: In this study, 50 STZ-diabetic rats were used to simulate Type 1 diabetes, with an additional 8 normal rats serving as the control group (normal blank gel control group (without STZ)). The method for modeling the STZ-diabetic rat is as follows: Male Wistar rats were weighed and then intraperitoneally injected with Streptozotocin (STZ, freshly prepared, dissolved in 0.1 M citrate buffer (pH 4.5)) at a dosage of 80 mg/kg. STZ was intraperitoneally injected twice in total, with a 5-day interval between injections. Three days after the second STZ injection, rats with fasting blood glucose levels greater than 250 mg/dl were defined as diabetic model rats. Studies on skin wound healing could be conducted from 1 to 8 weeks after the successful establishment of the diabetic rat model. • 2.
In diabetic model rats, the dorsal skin was marked with a stamp, and full-thickness excision was performed to create a standardized wound area. The day of the full-thickness skin excision surgery was designated as Day 1 of the experiment. The specified surgical procedure was as follows: • 1) Prior to surgery, animals were anesthetized with 2-5% isoflurane. The back was shaved and prepared, and the surgical area was disinfected with iodophor, followed by de-iodination with 75% alcohol. • 2) All animals were marked on the skin of their backs using a stamp with a circular pattern. A circular full-thickness skin excision was performed along the midline of the rat's back, extending down to the fascial layer. […] The surgical site was essentially consistent for each animal; • 3) Post-surgery, every 8-12 hours, 8 mg/kg of bupivacaine (diluted to 0.25% with physiological saline) was injected subcutaneously at the wound site. All animals were closely monitored until they regained consciousness. Animals were monitored daily, and if symptoms of pain persisted, they would continue to receive pain medication. • 4. Drug administration:
All experimental groups were topically administered. Before administering the medication, wounds were rinsed with physiological saline and any residual moisture was absorbed with a sterile cotton swab. Then, the medication was applied. For the GeneTime group, the solution was evenly applied to the wound and surrounding skin, with the dressing changed twice a day. For the other groups, the gel samples were applied from the periphery toward the center, focusing first on the edges of the lesion before covering inward, with the dressing changed twice a day. Medication was applied immediately after the wound model was created, and each group was continuously administered for 18 days. For specific administration information, see Table 2. • 5. Efficacy assessment • 1) Blood glucose monitoring: Blood samples were obtained from all animals via tail vein sampling, and fasting blood glucose levels were measured on days 0/9/18 using a glucometer. • 2) Evaluation of wound closure:
After anesthetizing the rats with isoflurane, a ruler was placed near the wound as a reference scale. Using a digital camera, photos of the wound on the rat's back were taken on days 1, 4, 8, 11, 14, and 18, maintaining a constant focus and pixel condition. The obtained images were processed by software to measure the wound area. • 6. Statistical analysis
Experimental data were expressed as the mean±standard error of the mean (mean±S.E.M.). Statistical analyses were conducted using appropriate methods in software such as Graphpad Prism or SPSS. A p-value of less than 0.05 is considered to indicate a significant difference. • 7. Results • 1) Fasting blood glucose
Remaining Open Wound Area %=Open Wound Area (O)/Initial Wound Area (I)*100%

For CC1(c2ccc(=O)n(-c3ccsc3)c2)COC1 [compound I], the “Remaining open wound area” value (0.3% compound I gel, 50 mg topical twice daily, Day 1 (day of surgery)) was 100% ±, the “Remaining open wound area” value (0.3% compound I gel, 50 mg topical twice daily, Day 4) was 94.82% ± and the “Remaining open wound area” value (0.3% compound I gel, 50 mg topical twice daily, Day 8) was 54% ±. The “Remaining open wound area” value (0.3% compound I gel, 50 mg topical twice daily, Day 11) was 24.5% ±, the “Remaining open wound area” value (0.3% compound I gel, 50 mg topical twice daily, Day 14) was 7.75% ± and the “Remaining open wound area” value (0.3% compound I gel, 50 mg topical twice daily, Day 18) was 1.22% ±. For the same molecule, the “Remaining open wound area” value (1% compound I gel, topical twice daily, Day 1 (day of surgery)) was 100% ±, the “Remaining open wound area” value (1% compound I gel, topical twice daily, Day 4) was 94.25% ± and the “Remaining open wound area” value (1% compound I gel, topical twice daily, Day 8) was 55.4% ±. The “Remaining open wound area” value (1% compound I gel, topical twice daily, Day 14) was 5.47% ±, the “Remaining open wound area” value (1% compound I gel, topical twice daily, Day 18) was 0.78% ± and the “Change of remaining open wound area % vs model blank gel control group” value (“Change of remaining open wound area %” for short) (1% compound I gel, after 14 days of topical administration, no statistical difference) was “tended to decrease”. The “Change of remaining open wound area %” value (1% compound I gel, day 11 after administration, P<0.01) was “significantly reduced”, the “Remaining open wound area” value (3% compound I gel, topical twice daily, Day 1 (day of surgery)) was 100% ± and the “Remaining open wound area” value (3% compound I gel, topical twice daily, Day 4) was 93.96% ±. The “Remaining open wound area” value (3% compound I gel, topical twice daily, Day 8) was 56.92% ±, the “Remaining open wound area” value (3% compound I gel, topical twice daily, Day 14) was 6% ± and the “Remaining open wound area” value (3% compound I gel, topical twice daily, Day 18) was 2.01% ±. The “Change of remaining open wound area %” value (3% compound I gel, after 14 days of topical administration, no statistical difference) was “tended to decrease” and the “Change of remaining open wound area %” value (3% compound I gel, day 11 after administration, P<0.05) was “significantly reduced”.
